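Assay format: 96-well plates, 48-hour exposure. Definition used: TGI = concentration required for complete inhibition of growth.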
What was measured:
Assay in all cases: growth of human tumour cells (NCI), 48 h
[1] = tested on: SK-MEL-28 melanoma
[2] = tested on: RPMI-8226 leukemia
[3] = tested on: SW-620 colon
[4] = tested on: NCI/ADR-RES ovarian
[5] = tested on: UACC-62 melanoma
[6] = tested on: HOP-92 NSCLC
[7] = tested on: T-47D breast
[8] = tested on: NCI-H23 lung
[9] = tested on: HCT-15 colon
[10] = tested on: IGROV1 ovarian
[11] = tested on: DU-145 prostate
[12] = tested on: U251 CNS
[13] = tested on: SF-539 CNS
[14] = tested on: CAKI-1 renal
[15] = tested on: HS 578T breast
[16] = tested on: 786-0 renal
[17] = tested on: SNB-19 CNS
[18] = tested on: HL-60(TB) leukemia
[19] = tested on: UO-31 renal
[20] = tested on: RXF 393 renal
[21] = tested on: M14 melanoma
[22] = tested on: SF-268 CNS
[23] = tested on: SR leukemia
[24] = tested on: OVCAR-3 ovarian
[25] = tested on: MDA-MB-435
[26] = tested on: ACHN renal
[27] = tested on: SK-OV-3 ovarian
[28] = tested on: LOX IMVI melanoma
[29] = tested on: HT29 colon
[30] = tested on: UACC-257 melanoma
[31] = tested on: TK-10 renal
[32] = tested on: PC-3 prostate
[33] = tested on: OVCAR-4 ovarian
[34] = tested on: K-562 leukemia
[35] = tested on: MALME-3M melanoma
[36] = tested on: MDA-MB-231 breast
[37] = tested on: MOLT-4 leukemia
[38] = tested on: HCT-116 colon
[39] = tested on: MCF7 breast
[40] = tested on: A498 renal
[41] = tested on: NCI-H460 lung
[42] = tested on: OVCAR-5 ovarian
[43] = tested on: SNB-75 CNS
[44] = tested on: CCRF-CEM leukemia
[45] = tested on: NCI-H522 lung
[46] = tested on: EKVX NSCLC
[47] = tested on: A549 NSCLC
[48] = tested on: HCC-2998 colon
[49] = tested on: SF-295 CNS
[50] = tested on: KM12 colon
[51] = tested on: SK-MEL-2 melanoma
[52] = tested on: COLO 205 colon
[53] = tested on: BT-549 breast

Structure (SMILES): COc1cc(/C=N\O)nc(-c2ccccn2)c1
- TGI [1]: > 100 µM
- TGI [2]: > 76.8 µM
- TGI [3]: > 100 µM
- TGI [4]: > 49.6 µM
- TGI [5]: 8.28 µM
- TGI [6]: > 100 µM
- TGI [7]: > 100 µM
- TGI [8]: > 100 µM
- TGI [9]: > 100 µM
- TGI [10]: 13.2 µM
- TGI [11]: > 100 µM
- TGI [12]: > 100 µM
- TGI [13]: > 32.8 µM
- TGI [14]: 28 µM
- TGI [15]: > 100 µM
- TGI [16]: > 100 µM
- TGI [17]: > 100 µM
- TGI [18]: > 35.5 µM
- TGI [19]: 3.13 µM
- TGI [20]: > 100 µM
- TGI [21]: > 45 µM
- TGI [22]: > 100 µM
- TGI [23]: 0.453 µM
- TGI [24]: > 100 µM
- TGI [25]: > 100 µM
- TGI [26]: > 100 µM
- TGI [27]: > 100 µM
- TGI [28]: > 100 µM
- TGI [29]: > 100 µM
- TGI [30]: > 100 µM
- TGI [31]: > 100 µM
- TGI [32]: > 100 µM
- TGI [33]: > 100 µM
- TGI [34]: > 100 µM
- TGI [35]: > 100 µM
- TGI [36]: > 100 µM
- TGI [37]: > 100 µM
- TGI [38]: > 100 µM
- TGI [39]: > 100 µM
- TGI [40]: 9.22 µM
- TGI [41]: > 100 µM
- TGI [42]: > 100 µM
- TGI [43]: > 51.6 µM
- TGI [44]: > 100 µM
- TGI [45]: 56.2 µM
- TGI [46]: 23.5 µM
- TGI [47]: > 100 µM
- TGI [48]: > 100 µM
- TGI [49]: > 100 µM
- TGI [50]: > 100 µM
- TGI [51]: > 100 µM
- TGI [52]: > 100 µM
- TGI [53]: > 100 µM
